Assays:
Assay type in all cases: functional
[1] = Growth inhibition of human lung cancer cells at 10^-10 M; conditions: Cancer cell lines, read-out: GI
[2] = Growth inhibition of human colon cancer cells at 10^-10 M; conditions: Cancer cell lines, read-out: GI
[3] = Growth inhibition of human renal cancer cells at 10^-10 M; conditions: Cancer cell lines, read-out: GI
[4] = Growth inhibition of human ovarian cancer cells at 10^-10 M; conditions: Cancer cell lines, read-out: GI
[5] = Growth inhibition of human breast cancer cells at 10^-10 M; conditions: Cancer cell lines, read-out: GI
[6] = system: OVCAR-3; assay: In vivo antineoplastic activity against human OVCAR-3 cells at 25 ug/kg
[7] = system: P388; assay: Antineoplastic activity against mouse P388 cells
[8] = system: B16; assay: In vivo antineoplastic activity against mouse B16 cells at 11 ug/kg
[9] = system: P388; assay: Antineoplastic activity against mouse P388 cells at 3 mg/kg relative to control
[10] = system: P388; assay: Antineoplastic activity against mouse P388 cells at 12.5 mg/kg relative to control
[11] = system: P388; assay: Antineoplastic activity against mouse P388 cells at 32 mg/kg relative to control
[12] = system: P388; assay: Antineoplastic activity against mouse P388 cells at 100 mg/kg relative to control

Structure (SMILES): C=C(Cl)/C=C/[C@H](O)CC(=C)C[C@H]1O[C@@H]2[C@H](C)[C@@H](OC(=O)C[C@@H]3C[C@@H](OC(C)=O)C[C@]4(C[C@](C)(O)C[C@@H](CC(=C)[C@H](C)[C@@H](OC(C)=O)[C@H](C)C(=O)C[C@H]5C[C@@H](OC)C[C@]6(C[C@H](O)C[C@@H](/C=C\CCC[C@@H]7O[C@@](O)(C[C@@H](O)[C@@H]7C)[C@H]2O)O6)O5)O4)O3)[C@@H]1O
- inhibition of growth at 0.0001 µM [1]: 50%
- inhibition of growth at 0.0001 µM [2]: 50%
- inhibition of growth at 0.0001 µM [3]: 50%
- inhibition of growth at 0.0001 µM [4]: 50%
- inhibition of growth at 0.0001 µM [5]: 50%
- Activity [6]: 70%

Structure (SMILES): C[C@@H]1[C@]2(O[C@H]3C=C4[C@@H]5CC[C@H]6Cc7nc8c(nc7C[C@]6(C)[C@H]5C[C@@H](O)[C@]4(C)[C@]31O)C[C@@H]1CC[C@H]3C4=CC[C@@H]5[C@H](C)[C@@]6(OC[C@]45C(=O)C[C@@H]3[C@@]1(C)C8)OC(C)(C)C[C@H]6O)O[C@](C)(CO)C[C@H]2O [CEPHALOSTATIN 1]
- ED50 [7]: 1 ×10⁻⁹ ug/ml

Structure (SMILES): CC[C@H](C)[C@@H]([C@@H](CC(=O)N1CCC[C@H]1[C@H](OC)[C@@H](C)C(=O)N[C@@H](Cc1ccccc1)c1nccs1)OC)N(C)C(=O)[C@@H](NC(=O)[C@H](C(C)C)N(C)C)C(C)C [DOLASTATIN-10]
- Activity [8]: 80%

Structure (SMILES): C=C1C(=O)O[C@@H]2C[C@@H](C)[C@@H]3C=CC(=O)[C@@]3(C)[C@@H](O)[C@H]12 [HELENALIN]
- T/C [9]: 220

Structure (SMILES): C=C1C(=O)O[C@@H]2[C@H](O)[C@@H](C)[C@@H]3C=CC(=O)[C@@]3(C)[C@@H](OC(=O)/C(C)=C\C)[C@H]12 [MULTIGILIN]
- T/C [10]: 164

Structure (SMILES): C=C1C(=O)O[C@@H]2C(=O)[C@@H](C)[C@@H]3C=CC(=O)[C@@]3(C)[C@@H](OC(=O)/C(C)=C\C)[C@H]12 [MULTISTATIN]
- T/C [11]: 131

Structure (SMILES): NCCS(=O)(=O)O [TAURINE]
- T/C [12]: 123
